We go through one compound from PMC6013247, “Preclinical characterization of INCB053914, a novel pan-PIM kinase inhibitor, alone and in combination with anticancer agents, in models of hematologic malignancies” (PLoS ONE, 2018).

In one assay the target is DYRK2 (Homo sapiens, UniProt Q92630). As to the kind of experiment: Kinase selectivity panel. The settings on record: [ATP] = 1 mM. It is filed as biochemical.
For the next assay, the target named is MSSK1 (Homo sapiens, UniProt Q9UPE1). As to the kind of experiment: Kinase selectivity panel. It is filed as biochemical. The settings on record: [ATP] = 1 mM.
The target in a further assay is TGFBR1 (Homo sapiens, UniProt P36897). As to the kind of experiment: Kinase selectivity panel. It is filed as biochemical. The settings on record: [ATP] = 1 mM.
The next assay deals with panel of 192 kinases. The experiment in a line: Broader panel of 192 kinases (PerkinElmer). It is filed as biochemical. The settings on record: INCB053914 100 nM; results not shown.
The next assay concerns the target IKKA (Homo sapiens, UniProt O15111). The experiment in a line: Kinase selectivity panel. Format: biochemical. The settings on record: [ATP] = 1 mM.
For the next assay, the target named is PIM2 (Homo sapiens, UniProt Q9P1W9). The experiment in a line: Kinase selectivity panel. The settings on record: [ATP] = 1 mM. It is filed as biochemical.
A further assay deals with FGFR3 (Homo sapiens, UniProt P22607). As to the kind of experiment: Kinase selectivity panel. It is filed as biochemical. The settings on record: [ATP] = 1 mM.
For the next assay, the target named is SGK1 (Homo sapiens, UniProt O00141). The experiment in a line: Kinase selectivity panel. Format: biochemical. The settings on record: [ATP] = 1 mM.
The next assay deals with Toledo. The experiment in a line: Cell proliferation assay ([3H]-thymidine). It is filed as cell-based. The settings on record: Toledo (DLBCL). Here is the method: (§1) The antiproliferative effects of INCB053914 on hematologic tumor cells were investigated using assays described in the Supporting Information (S2 File).
(§2) Cell proliferation assays. […] After 3 to 4 days, [^3H]-thymidine (1 μCi/well) (PerkinElmer) in PBS (10 μl) was added to the cell culture for an additional 12 hours. The incorporated radioactivity was separated by filtration with water through GF/B filters (Packard Bioscience, Meriden, Connecticut) and measured by liquid scintillation counting with a TopCount (Packard Bioscience).

A further assay concerns OCI-LY-3. As to the kind of experiment: Cell proliferation assay ([3H]-thymidine). It is filed as cell-based. The settings on record: Homo sapiens, OCI-Ly3; OCI-LY-3 (DLBCL); read-out: Mean (± SD) GI50. Here is the method: as §1, §2
The target of the next assay is EPHA2 (Homo sapiens, UniProt P29317). As to the kind of experiment: Kinase selectivity panel. Format: biochemical. The settings on record: [ATP] = 1 mM.
In the next assay the target is ERBB4 (Homo sapiens, UniProt Q15303). As to the kind of experiment: Kinase selectivity panel. Format: biochemical. The settings on record: [ATP] = 1 mM.
For a further assay, the target named is MAPKAPK2 (Homo sapiens, UniProt P49137). As to the kind of experiment: Kinase selectivity panel. It is filed as biochemical. The settings on record: [ATP] = 1 mM.
The test system of assay [1] is KMS-12-BM (MM) xenografts. The experiment in a line: Tumor growth in KMS-12-BM (MM) xenograft. The settings on record: KMS-12-BM tumors. Format: in vivo, mouse. Here is the method:
Female immune compromised (severe combined immunodeficiency [SCID]) mice (5–9 weeks of age; Charles River Laboratories, Wilmington, Massachusetts) were inoculated with MOLM-16, KG-1, or KMS-12-BM cells. A cell suspension in Dulbecco’s phosphate-buffered saline (DPBS) (1 × 10^8 cells/ml) was mixed 1:1 (v/v) with matrigel, and 200 μl was injected subcutaneously into the flank of each mouse. Studies of INCB053914 combination regimens used xenograft models derived from INA-6 (MM) cells or Pfeiffer (DLBCL) cells. INA-6 tumor fragments were injected subcutaneously as brei (100 μl in Hank’s balanced salt solution [HBSS, 1:10 v/v]) into the flank of each mouse; Pfeiffer tumor fragments (1 cm × 1 cm) were directly implanted. The treatment of tumor-bearing mice started 7 to 24 days after tumor inoculation for efficacy studies and approximately 14 to 27 days after tumor inoculation for pharmacodynamic studies.
For efficacy studies, mice were sorted to obtain approximately equivalent mean tumor volumes in each group. The starting mean tumor volume in efficacy studies for all groups ranged from 158 mm^3 to 249 mm^3, and groups consisted of eight or nine animals. The mean tumor volume in pharmacodynamic studies for all groups ranged from 114 mm^3 to 833 mm^3, and groups consisted of three to eight animals. INCB053914 was administered by oral gavage twice a day for 7 to 19 days (suspension in 5% dimethylacetamide with 0.5% w/v methylcellulose [Sigma-Aldrich]) or by subcutaneous continuous infusion (Alzet osmotic pumps; flow rate 0.5 μl/h for efficacy studies and 1.0 μl/h for pharmacodynamic studies).
For the evaluation of the effects of INCB053914 on tumor growth, tumor-bearing mice (MOLM-16 xenograft, eight mice/group; KMS-12-BM xenograft, nine mice/group) were dosed orally twice a day with INCB053914 at doses ranging from 0 (vehicle) to 100 mg/kg for 15 days.
Tumor volume was calculated in two dimensions using the equation: volume = [length × (width^2)] / 2, where the larger number was length and the smaller number was width. Effects on tumor growth were reported as percent tumor growth inhibition calculated as (1 − [treatment volume / control volume]) × 100, where control volume was the vehicle/untreated tumor volume on a given day and treatment volume was any treatment group tumor volume on that same day. Statistical significance of differences between treatment and vehicle controls was assessed using analysis of variance single factor test.

Assay [2] concerns phosphorylation of BAD in KMS-12-BM cells. The experiment in a line: pBAD S112 ELISA in cells. The settings on record: Homo sapiens, 2.5 hours, RPMI + 10% FBS, read-out: mean (± SD) IC50, pBAD inhibition. It is filed as cell-based. Here is the method:
(§3) The effect of INCB053914 on the level of pBAD was further investigated in KMS-12-BM and MOLM-16 cells, which were suspended in RPMI + 10% fetal bovine serum (FBS) and seeded into 96-well v-bottom polypropylene plates (Greiner, Munroe, North Carolina; 4 × 10^5 cells/well/100 μl) in the presence of 5 μl INCB053914 at a final concentration range of 0.1 nM to 1,000 nM. After 2.5 hours at 37°C and 5% CO2, the cells were lysed in 100 μl of cell extraction buffer (Cell Signaling Technology) containing phenylmethane sulfonyl fluoride, Halt^TM phosphatase, and protease inhibitors (Thermo Fisher Scientific, Waltham, Massachusetts; Calbiochem). The concentration of pBAD protein in the cell lysates was quantified using a Human pBAD S112 ELISA Kit (Cell Signaling Technology).

Assay [3] has as its system phosphorylation of BAD in MOLM-16 cells. As to the kind of experiment: pBAD S112 ELISA in cells. It is filed as cell-based. The settings on record: Homo sapiens, MOLM16, 2.5 hours, RPMI + 10% FBS, read-out: mean (± SD) IC50, pBAD inhibition. Here is the method: as §3
(In general: In an ELISA, binding on a coated surface is turned into a signal by an enzyme label.)

In a further assay the target is TIE2 (Homo sapiens, UniProt Q02763). The experiment in a line: Kinase selectivity panel. Format: biochemical. The settings on record: [ATP] = 1 mM.
Assay [4] concerns panel of more than 50 kinases. The settings on record: except for RSK2. Here is the method:
S1 Table. Selectivity of INCB053914 for PIM kinases compared with 56 kinases representative of the kinome [ATP] = 1 mM.

A further assay concerns the target STK4 (Homo sapiens, UniProt Q13043). The experiment in a line: Kinase selectivity panel. It is filed as biochemical. The settings on record: [ATP] = 1 mM.

STK4, sequence (Q13043 whole entry, species assumed): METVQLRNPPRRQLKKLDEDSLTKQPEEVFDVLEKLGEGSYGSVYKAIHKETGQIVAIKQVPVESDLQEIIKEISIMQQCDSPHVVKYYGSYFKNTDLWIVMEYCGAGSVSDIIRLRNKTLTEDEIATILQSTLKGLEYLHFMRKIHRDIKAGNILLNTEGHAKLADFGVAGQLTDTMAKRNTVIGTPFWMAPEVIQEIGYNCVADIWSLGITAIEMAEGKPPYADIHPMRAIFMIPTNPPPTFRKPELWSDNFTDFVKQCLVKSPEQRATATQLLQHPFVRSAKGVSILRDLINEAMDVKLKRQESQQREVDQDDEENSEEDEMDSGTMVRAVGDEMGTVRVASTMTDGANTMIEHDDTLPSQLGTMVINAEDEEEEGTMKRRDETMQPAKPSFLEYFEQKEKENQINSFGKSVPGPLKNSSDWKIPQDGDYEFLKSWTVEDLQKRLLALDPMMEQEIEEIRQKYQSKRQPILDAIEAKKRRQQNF
PIM2, sequence (Q9P1W9 whole entry): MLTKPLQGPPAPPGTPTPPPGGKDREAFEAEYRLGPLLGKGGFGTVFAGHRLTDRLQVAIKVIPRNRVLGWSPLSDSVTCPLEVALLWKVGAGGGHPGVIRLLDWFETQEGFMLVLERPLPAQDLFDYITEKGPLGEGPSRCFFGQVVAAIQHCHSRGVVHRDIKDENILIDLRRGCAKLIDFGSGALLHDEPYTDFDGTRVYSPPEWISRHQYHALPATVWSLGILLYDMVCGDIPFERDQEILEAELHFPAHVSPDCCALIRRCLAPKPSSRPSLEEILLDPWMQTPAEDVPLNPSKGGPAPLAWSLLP
MSSK1, sequence (Q9UPE1 whole entry): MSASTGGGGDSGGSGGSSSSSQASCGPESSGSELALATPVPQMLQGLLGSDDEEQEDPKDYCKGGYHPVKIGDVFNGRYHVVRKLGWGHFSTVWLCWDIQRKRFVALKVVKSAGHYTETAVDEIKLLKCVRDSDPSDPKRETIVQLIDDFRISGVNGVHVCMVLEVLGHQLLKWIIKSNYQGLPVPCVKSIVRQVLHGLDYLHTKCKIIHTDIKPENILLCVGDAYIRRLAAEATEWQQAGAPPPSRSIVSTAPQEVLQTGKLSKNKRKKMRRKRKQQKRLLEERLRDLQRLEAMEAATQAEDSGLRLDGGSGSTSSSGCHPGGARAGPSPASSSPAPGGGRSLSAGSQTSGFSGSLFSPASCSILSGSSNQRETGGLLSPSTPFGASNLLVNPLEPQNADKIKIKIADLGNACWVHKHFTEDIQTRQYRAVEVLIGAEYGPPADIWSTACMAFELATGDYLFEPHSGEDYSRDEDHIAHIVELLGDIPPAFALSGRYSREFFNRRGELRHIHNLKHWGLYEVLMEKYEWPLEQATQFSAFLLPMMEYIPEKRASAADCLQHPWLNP
SGK1, sequence (O00141 whole entry, species assumed): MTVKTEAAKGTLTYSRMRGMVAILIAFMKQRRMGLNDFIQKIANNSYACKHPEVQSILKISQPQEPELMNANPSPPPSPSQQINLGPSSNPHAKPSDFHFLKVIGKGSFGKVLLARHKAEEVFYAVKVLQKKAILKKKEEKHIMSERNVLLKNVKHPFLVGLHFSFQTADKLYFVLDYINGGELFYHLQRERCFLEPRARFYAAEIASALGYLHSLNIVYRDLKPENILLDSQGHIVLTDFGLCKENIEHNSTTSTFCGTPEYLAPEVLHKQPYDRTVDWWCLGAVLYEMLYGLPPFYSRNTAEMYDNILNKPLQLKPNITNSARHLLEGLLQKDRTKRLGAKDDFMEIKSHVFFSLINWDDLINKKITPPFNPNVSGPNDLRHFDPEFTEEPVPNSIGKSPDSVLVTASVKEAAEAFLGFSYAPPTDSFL
TIE2, sequence (Q02763 23-1124, species assumed): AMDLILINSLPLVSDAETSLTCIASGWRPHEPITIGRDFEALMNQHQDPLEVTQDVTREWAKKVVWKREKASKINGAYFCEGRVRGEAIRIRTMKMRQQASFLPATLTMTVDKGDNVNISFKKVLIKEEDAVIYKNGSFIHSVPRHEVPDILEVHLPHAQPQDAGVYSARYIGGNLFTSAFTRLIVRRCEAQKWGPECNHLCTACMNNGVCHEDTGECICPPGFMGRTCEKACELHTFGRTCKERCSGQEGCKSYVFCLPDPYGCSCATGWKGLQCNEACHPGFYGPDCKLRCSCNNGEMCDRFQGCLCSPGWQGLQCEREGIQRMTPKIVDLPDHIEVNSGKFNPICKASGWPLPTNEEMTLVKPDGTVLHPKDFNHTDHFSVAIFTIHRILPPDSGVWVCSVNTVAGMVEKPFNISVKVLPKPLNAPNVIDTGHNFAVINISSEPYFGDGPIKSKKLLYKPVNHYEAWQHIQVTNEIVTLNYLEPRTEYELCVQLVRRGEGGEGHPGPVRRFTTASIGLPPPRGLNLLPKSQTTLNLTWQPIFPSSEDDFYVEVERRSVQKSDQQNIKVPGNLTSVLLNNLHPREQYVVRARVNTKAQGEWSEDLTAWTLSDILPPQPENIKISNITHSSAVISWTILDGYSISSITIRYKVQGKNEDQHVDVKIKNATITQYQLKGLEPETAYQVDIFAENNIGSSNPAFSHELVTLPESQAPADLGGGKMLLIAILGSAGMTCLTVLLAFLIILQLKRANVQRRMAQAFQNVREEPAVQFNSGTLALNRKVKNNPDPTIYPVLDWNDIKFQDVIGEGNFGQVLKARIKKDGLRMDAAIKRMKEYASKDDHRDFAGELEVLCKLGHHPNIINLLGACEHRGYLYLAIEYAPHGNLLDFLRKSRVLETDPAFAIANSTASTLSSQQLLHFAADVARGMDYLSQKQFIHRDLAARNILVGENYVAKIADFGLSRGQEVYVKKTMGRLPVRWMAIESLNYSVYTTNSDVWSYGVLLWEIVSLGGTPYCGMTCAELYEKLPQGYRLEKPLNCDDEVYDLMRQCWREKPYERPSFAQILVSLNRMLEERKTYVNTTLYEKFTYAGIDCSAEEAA
TGFBR1, sequence (P36897 34-503, species assumed): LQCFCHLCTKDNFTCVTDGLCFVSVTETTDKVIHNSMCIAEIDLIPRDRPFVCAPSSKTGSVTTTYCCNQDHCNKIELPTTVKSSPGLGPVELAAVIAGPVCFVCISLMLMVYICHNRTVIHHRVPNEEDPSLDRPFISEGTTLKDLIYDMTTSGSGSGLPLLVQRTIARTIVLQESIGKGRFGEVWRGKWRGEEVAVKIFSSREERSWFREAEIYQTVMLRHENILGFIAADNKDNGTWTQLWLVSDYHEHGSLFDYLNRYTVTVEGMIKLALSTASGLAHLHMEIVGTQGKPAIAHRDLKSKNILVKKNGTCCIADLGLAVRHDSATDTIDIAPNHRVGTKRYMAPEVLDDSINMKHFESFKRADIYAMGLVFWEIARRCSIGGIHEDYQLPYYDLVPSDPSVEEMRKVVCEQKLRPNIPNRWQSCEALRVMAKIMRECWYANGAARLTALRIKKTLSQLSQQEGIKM
ERBB4, sequence (Q15303 26-1308): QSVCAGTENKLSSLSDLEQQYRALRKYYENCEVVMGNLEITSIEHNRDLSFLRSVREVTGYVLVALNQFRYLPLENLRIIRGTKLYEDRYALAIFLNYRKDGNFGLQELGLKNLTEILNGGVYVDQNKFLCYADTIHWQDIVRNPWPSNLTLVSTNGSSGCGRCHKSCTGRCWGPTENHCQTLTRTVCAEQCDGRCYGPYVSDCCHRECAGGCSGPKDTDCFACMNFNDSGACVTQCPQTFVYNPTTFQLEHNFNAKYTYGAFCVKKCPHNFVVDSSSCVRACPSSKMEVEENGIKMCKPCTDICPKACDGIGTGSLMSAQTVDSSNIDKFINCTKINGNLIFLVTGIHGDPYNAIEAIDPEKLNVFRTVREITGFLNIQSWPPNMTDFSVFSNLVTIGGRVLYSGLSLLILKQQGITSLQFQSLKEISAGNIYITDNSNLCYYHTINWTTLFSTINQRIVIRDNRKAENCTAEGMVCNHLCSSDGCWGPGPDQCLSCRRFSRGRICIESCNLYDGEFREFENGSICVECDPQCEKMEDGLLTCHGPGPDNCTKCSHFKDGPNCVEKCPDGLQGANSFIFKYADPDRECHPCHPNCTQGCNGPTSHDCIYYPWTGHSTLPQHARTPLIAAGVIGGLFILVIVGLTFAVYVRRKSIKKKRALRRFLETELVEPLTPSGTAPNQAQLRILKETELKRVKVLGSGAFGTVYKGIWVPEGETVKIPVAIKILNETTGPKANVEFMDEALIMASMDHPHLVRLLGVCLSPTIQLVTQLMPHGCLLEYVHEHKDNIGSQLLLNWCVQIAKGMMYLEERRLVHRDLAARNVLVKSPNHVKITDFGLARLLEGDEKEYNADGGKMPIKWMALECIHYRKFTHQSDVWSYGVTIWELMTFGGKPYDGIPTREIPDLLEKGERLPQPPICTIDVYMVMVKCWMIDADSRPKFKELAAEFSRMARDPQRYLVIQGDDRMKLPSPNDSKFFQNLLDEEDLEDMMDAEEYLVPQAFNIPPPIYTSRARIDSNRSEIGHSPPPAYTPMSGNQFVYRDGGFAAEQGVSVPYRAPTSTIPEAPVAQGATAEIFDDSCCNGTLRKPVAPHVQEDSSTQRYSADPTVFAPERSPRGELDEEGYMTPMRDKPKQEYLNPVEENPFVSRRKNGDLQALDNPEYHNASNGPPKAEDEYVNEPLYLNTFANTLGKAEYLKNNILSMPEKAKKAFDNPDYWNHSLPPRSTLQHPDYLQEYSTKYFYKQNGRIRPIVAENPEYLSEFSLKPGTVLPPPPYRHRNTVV
MAPKAPK2, sequence (P49137 whole entry): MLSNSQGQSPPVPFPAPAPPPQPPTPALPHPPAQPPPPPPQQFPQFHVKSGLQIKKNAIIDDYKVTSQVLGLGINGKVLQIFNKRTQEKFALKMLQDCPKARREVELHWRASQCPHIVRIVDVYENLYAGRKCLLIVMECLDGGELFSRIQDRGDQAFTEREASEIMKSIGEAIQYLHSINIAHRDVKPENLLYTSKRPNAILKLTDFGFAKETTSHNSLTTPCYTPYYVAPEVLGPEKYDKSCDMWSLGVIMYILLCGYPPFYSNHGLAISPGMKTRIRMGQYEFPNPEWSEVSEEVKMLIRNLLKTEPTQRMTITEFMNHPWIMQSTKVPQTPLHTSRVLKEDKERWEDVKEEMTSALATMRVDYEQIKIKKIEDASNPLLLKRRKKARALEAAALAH

As usually defined, the IC50 is the midpoint of a concentration-inhibition curve. What is called GI50 is the concentration giving 50% growth inhibition. As for `C[C@H]1CN(c2c(NC(=O)c3ccc(F)c(-c4c(F)cccc4F)n3)cnc3c2CC[C@H]3O)C[C@@H](N)[C@@H]1O.O=P(O)(O)O` [INCB053914, N-((R)-4-((3R,4R,5S)-3-amino-4-hydroxy-5-methylpiperidin-1-yl)-7-hydroxy-6,7-dihydro-5H-cyclopenta[b]pyridin-3-yl)-6-(2,6-difluorophenyl)-5-fluoropicolinamide phosphate], the IC50 against DYRK2 is above 20 µM; against MSSK1, above 20 µM; against TGFBR1, above 20 µM; on IKKA it was above 20 µM; against PIM2, 0.015 µM; at FGFR3, above 20 µM. Further, the 50% inhibitory concentration (IC50) was above 20 µM against SGK1; above 20 µM at EPHA2; above 20 µM on ERBB4; above 20 µM against MAPKAPK2; 0.027 µM in assay [2]; 0.004 µM in assay [3]. For the same compound, the IC50 on TIE2 and on STK4 was above 20 µM in each case. In addition, the “kinases significantly inhibited in the panel of 192 kinases” value in the assay on panel of 192 kinases is listed as “no kinase other than Per-Arnt-Sim (PAS) kinase was significantly inhibited”. Further, the GI50 was 0.0707 ± 0.0251 µM with Toledo (Homo sapiens, read-out: Mean (± SD) GI50) and above 3 µM in the assay with OCI-LY-3. In the assay with Toledo, the “Mean (SD) maximum inhibition” value turned out to be 97.6 ± 1.5%. The tumor growth inhibition is reported as 43% in assay [1] (25 mg/kg twice a day), 71% in [1] (50 mg/kg twice a day), 77% in assay [1] (75 mg/kg twice a day) and 88% in assay [1] (100 mg/kg twice a day). The “selectivity against a panel of more than 50 kinases” value in assay [4] is reported as above 475 fold.
